Laboratory results published in ChEMBL document CHEMBL3351443, “Development of 3-hydroxycinnamamide-based HDAC inhibitors with potent in vitro and in vivo anti-tumor activity” (Eur J Med Chem, 2015).

How the values were obtained:
[1] = Antiproliferative activity against human U266 cells after 48 hrs by MTT assay; assay type: functional, cell-based; details: U-266, 48 h
Histone deacetylase 11 = target: T1, Histone deacetylase 11 (Homo sapiens, UniProt Q96DB2); experiment: Inhibition of HDAC11 (unknown origin)
T1 sequence (Q96DB2 whole entry): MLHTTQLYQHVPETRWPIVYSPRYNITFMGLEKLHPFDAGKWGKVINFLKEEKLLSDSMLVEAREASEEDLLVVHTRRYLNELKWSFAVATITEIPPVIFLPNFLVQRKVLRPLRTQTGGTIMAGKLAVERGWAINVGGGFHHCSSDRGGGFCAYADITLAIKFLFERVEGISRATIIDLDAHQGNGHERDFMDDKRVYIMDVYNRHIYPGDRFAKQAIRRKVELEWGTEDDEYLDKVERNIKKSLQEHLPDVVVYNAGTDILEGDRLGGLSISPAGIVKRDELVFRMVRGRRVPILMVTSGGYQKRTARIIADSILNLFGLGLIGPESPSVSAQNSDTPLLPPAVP

Histone deacetylase = experiment: Inhibition of HDAC in human HeLa cell extract using Boc-Lys (acetyl)-AMC as substrate incubated for 10 mins prior to substrate addition measured after 30 mins by fluorescence assay; assay type: protein assay
Histone deacetylase 3 = Histone deacetylase 3 (Homo sapiens, UniProt O15379); experiment: Inhibition of HDAC3 (unknown origin)
Histone deacetylase 1 = Histone deacetylase 1 (Homo sapiens, UniProt Q13547); experiment: Inhibition of HDAC1 (unknown origin)
Histone deacetylase 4 = Histone deacetylase 4 (Homo sapiens, UniProt P56524); experiment: Inhibition of HDAC4 (unknown origin)
Histone deacetylase 8 = target: T2, Histone deacetylase 8 (Homo sapiens, UniProt Q9BY41); experiment: Inhibition of HDAC8 (unknown origin)
T2 sequence (Q9BY41 whole entry): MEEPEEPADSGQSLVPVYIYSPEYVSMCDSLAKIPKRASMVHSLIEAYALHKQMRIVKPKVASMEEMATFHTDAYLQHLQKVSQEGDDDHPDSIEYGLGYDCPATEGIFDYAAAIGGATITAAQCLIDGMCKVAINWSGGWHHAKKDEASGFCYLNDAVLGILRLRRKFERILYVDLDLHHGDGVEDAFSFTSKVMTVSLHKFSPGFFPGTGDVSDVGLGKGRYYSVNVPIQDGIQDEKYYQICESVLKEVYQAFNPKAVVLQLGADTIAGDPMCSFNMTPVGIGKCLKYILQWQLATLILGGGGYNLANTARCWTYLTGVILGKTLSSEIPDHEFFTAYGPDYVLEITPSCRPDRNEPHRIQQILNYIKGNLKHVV

[2] = target: T3, Protein deacetylase HDAC6 (Homo sapiens, UniProt Q9UBN7); experiment: Inhibition of HDAC6 (unknown origin)
T3 sequence (Q9UBN7 whole entry): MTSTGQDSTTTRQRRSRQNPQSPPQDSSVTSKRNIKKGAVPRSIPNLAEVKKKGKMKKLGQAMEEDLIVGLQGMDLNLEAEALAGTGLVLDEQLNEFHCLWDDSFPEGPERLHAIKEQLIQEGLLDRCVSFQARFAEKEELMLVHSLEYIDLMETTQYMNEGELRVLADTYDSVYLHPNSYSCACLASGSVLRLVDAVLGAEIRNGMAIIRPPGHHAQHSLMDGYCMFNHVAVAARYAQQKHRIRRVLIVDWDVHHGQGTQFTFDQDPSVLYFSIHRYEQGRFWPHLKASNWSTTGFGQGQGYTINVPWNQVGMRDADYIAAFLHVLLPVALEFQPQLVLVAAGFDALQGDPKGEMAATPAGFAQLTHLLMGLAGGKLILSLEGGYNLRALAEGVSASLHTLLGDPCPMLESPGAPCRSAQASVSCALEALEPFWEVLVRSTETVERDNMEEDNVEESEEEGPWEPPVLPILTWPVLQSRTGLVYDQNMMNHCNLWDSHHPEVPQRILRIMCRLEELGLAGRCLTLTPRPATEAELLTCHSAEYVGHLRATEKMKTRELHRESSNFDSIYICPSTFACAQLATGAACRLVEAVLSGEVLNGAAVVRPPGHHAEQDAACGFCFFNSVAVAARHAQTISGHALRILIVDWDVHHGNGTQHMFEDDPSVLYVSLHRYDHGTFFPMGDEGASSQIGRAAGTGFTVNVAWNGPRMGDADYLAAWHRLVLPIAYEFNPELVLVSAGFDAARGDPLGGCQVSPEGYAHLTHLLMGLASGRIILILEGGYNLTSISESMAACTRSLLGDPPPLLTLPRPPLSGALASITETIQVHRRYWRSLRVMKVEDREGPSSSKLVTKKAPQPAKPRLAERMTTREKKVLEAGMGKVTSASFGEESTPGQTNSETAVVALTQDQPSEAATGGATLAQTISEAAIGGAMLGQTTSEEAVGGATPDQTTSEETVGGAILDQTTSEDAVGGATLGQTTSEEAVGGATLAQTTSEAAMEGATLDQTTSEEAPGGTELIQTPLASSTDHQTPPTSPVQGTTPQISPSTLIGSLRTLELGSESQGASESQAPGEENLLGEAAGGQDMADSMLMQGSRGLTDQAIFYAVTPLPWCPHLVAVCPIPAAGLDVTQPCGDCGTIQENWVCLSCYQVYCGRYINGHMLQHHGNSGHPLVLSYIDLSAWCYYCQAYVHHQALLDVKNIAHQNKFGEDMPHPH

Histone deacetylase 2 = Histone deacetylase 2 (Homo sapiens, UniProt Q92769); experiment: Inhibition of HDAC2 (unknown origin)
[3] = Antitumor activity against human U937 cells xenografted in athymic nude mouse at 120 mg/kg/day, po after 16 days relative to control; assay type: functional, U-937
U-937 [4] = experiment: Induction of apoptosis in human U937 cells assessed as viable cells at 1.5 uM after 24 hrs by annexin-V/propidium iodide staining-based flow cytometry (reference value: 92.47%); assay type: functional
U-937 [5] = experiment: Induction of apoptosis in human U937 cells assessed as early apoptotic cells at 1.5 uM after 24 hrs by annexin-V/propidium iodide staining-based flow cytometry (reference value: 3.81%); assay type: functional
U-937 [6] = experiment: Induction of apoptosis in human U937 cells assessed as late apoptotic cells at 1.5 uM after 24 hrs by annexin-V/propidium iodide staining-based flow cytometry (reference value: 2.77%); assay type: functional
[7] = Antiproliferative activity against human PC3 cells after 48 hrs by MTT assay; assay type: functional, cell-based; details: PC-3, 48 h
U-937 [8] = experiment: Induction of apoptosis in human U937 cells assessed as apoptotic cells at 1.5 uM after 24 hrs by annexin-V/propidium iodide staining-based flow cytometry; assay type: functional
U-937 [9] = experiment: Induction of apoptosis in human U937 cells assessed as dead cells at 1.5 uM after 24 hrs by annexin-V/propidium iodide staining-based flow cytometry (reference value: 0.95%); assay type: functional
MCF7 = experiment: Antiproliferative activity against human MCF7 cells after 48 hrs by MTT assay; assay type: functional, cell-based; details: MCF7, 48 h
Mus musculus [10] = experiment: Toxicity in athymic nude mouse xenografted with human U937 cells assessed as toxic sign in liver at 120 mg/kg/day, po after 16 days; assay type: organism-based, U-937; set-up: route oral; details: in vivo, 384 h
MDA-MB-231 = experiment: Antiproliferative activity against human MDA-MB-231 cells after 48 hrs by MTT assay; assay type: functional, cell-based; details: MDA-MB-231, 48 h
[11] = Antiproliferative activity against human KG1 cells after 48 hrs by MTT assay; assay type: functional, cell-based; details: KG-1, 48 h
A549 = experiment: Antiproliferative activity against human A549 cells after 48 hrs by MTT assay; assay type: functional, cell-based; details: A549, 48 h
[12] = Antiproliferative activity against human U937 cells after 48 hrs by MTT assay; assay type: functional, cell-based; details: U-937, 48 h
[13] = Antitumor activity against human U937 cells xenografted in athymic nude mouse assessed as tumor growth inhibition at 120 mg/kg/day, po after 16 days; assay type: functional; details: U-937, 384 h, read-out: TGI
[14] = Antiproliferative activity against human HCT116 cells after 48 hrs by MTT assay; assay type: functional, cell-based; details: HCT-116, 48 h
[15] = Antiproliferative activity against human HL60 cells after 48 hrs by MTT assay; assay type: functional, cell-based; details: HL-60, 48 h
Mus musculus [16] = experiment: Toxicity in athymic nude mouse xenografted with human U937 cells assessed as weight loss at 120 mg/kg/day, po after 16 days; assay type: organism-based, U-937; set-up: route oral; details: in vivo, 384 h
HEL = experiment: Antiproliferative activity against human HEL cells after 48 hrs by MTT assay; assay type: functional, cell-based
Mus musculus [17] = experiment: Toxicity in athymic nude mouse xenografted with human U937 cells assessed as toxic sign in spleen at 120 mg/kg/day, po after 16 days; assay type: organism-based, U-937; set-up: route oral; details: in vivo, 384 h
K562 = experiment: Antiproliferative activity against human K562 cells after 48 hrs by MTT assay; assay type: functional, cell-based; details: K562, 48 h

Sequence of Histone deacetylase 1 (Q13547 whole entry): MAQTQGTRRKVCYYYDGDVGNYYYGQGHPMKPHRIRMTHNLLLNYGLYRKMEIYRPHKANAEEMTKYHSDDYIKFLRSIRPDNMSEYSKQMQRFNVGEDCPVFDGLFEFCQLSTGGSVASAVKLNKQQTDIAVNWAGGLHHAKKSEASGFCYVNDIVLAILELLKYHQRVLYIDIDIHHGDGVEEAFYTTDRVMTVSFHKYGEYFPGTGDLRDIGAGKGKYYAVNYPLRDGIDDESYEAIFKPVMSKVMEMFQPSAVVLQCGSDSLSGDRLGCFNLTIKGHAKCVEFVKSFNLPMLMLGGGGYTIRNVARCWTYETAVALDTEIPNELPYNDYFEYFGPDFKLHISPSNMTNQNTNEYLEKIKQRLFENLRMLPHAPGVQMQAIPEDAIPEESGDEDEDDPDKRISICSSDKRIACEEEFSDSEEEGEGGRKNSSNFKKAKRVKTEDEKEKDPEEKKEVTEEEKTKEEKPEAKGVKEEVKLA
Sequence of Histone deacetylase 2 (Q92769 whole entry): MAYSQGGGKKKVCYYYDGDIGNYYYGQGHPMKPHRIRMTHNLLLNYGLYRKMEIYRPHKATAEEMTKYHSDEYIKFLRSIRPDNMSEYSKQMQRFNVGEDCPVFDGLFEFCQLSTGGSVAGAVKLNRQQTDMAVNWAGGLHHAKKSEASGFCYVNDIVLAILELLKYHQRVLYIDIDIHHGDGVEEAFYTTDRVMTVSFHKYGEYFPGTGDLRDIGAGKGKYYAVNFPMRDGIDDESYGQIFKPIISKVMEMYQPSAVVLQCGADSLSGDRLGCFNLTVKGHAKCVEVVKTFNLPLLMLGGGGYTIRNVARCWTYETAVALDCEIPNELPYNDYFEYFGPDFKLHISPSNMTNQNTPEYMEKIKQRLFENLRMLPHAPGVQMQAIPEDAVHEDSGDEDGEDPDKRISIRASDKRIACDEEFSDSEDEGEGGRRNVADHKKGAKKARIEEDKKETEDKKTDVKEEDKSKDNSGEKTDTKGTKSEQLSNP
Sequence of Histone deacetylase 3 (O15379 whole entry): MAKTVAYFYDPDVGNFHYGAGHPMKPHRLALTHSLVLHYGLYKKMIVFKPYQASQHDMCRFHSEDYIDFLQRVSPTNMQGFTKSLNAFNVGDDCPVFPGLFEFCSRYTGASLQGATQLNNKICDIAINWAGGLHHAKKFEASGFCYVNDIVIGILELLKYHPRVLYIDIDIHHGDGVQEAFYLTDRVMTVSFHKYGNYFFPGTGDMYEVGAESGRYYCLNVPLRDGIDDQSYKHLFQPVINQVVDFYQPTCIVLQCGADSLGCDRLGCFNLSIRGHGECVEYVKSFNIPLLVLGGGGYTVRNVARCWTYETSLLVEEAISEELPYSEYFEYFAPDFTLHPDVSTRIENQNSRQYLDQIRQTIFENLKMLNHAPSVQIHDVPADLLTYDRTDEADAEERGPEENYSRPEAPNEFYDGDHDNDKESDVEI
Sequence of Histone deacetylase 4 (P56524 whole entry): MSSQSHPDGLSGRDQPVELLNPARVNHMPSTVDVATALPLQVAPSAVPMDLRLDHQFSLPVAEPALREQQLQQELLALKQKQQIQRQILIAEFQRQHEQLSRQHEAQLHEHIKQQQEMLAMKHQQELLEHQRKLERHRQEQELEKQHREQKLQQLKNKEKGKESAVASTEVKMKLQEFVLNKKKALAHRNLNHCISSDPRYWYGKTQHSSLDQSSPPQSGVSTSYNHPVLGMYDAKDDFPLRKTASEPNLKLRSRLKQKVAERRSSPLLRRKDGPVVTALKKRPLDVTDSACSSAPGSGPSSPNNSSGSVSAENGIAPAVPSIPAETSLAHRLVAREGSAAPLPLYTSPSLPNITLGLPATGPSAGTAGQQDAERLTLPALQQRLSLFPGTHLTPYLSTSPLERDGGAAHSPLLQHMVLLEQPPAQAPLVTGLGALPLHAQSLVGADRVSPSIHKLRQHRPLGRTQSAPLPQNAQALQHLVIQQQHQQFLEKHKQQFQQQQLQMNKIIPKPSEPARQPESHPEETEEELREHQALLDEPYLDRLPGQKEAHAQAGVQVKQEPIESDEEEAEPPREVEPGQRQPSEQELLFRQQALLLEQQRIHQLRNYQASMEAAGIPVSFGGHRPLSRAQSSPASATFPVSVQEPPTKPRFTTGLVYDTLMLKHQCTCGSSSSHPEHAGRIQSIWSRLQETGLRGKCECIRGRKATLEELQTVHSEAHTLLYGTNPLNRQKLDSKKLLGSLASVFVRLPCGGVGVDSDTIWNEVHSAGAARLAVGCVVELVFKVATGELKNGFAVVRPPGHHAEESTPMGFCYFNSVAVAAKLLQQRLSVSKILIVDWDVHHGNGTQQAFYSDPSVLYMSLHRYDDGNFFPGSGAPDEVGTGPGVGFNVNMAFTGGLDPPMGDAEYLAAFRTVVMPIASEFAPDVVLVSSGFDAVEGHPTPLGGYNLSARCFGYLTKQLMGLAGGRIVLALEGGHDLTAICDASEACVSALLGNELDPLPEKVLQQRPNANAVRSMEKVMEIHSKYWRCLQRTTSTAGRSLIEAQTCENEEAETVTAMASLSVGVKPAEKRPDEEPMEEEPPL

O=C(/C=C/c1cccc(OC[C@H](Cc2c[nH]c3ccccc23)NC(=O)c2ccc(Cl)cc2)c1)NO
IC50 [1]: 1740 nM

COc1ccccc1C(=O)N[C@H](COc1cccc(/C=C/C(=O)NO)c1)Cc1c[nH]c2ccccc12
IC50 (Histone deacetylase 11): 52.7 nM
IC50 (Histone deacetylase): 38.5 nM
IC50 (Histone deacetylase 3): 28.7 nM
IC50 (Histone deacetylase 1): 33.2 nM
IC50 (Histone deacetylase 4): 440 nM
IC50 (Histone deacetylase 8): 87.4 nM
IC50 [1]: 1430 nM
IC50 [2]: 23.9 nM
IC50 (Histone deacetylase 2): 64.8 nM

O=C(/C=C/c1cccc(OC[C@H](Cc2c[nH]c3ccccc23)NC(=O)c2cccc(Cl)c2)c1)NO
IC50 (Histone deacetylase): 357.9 nM
IC50 [1]: 3080 nM

Cc1ccc(C(=O)N[C@H](COc2cccc(/C=C/C(=O)NO)c2)Cc2c[nH]c3ccccc23)cc1
IC50 (Histone deacetylase): 218.7 nM
IC50 [1]: 390 nM

CC(NC(=O)OC(C)(C)C)C(=O)N[C@H](COc1cccc(/C=C/C(=O)NO)c1)Cc1c[nH]c2ccccc12 (stereo partly specified)
IC50 (Histone deacetylase): 861.5 nM
IC50 [1]: 6560 nM

O=C(/C=C/c1cccc(OC[C@H](Cc2c[nH]c3ccccc23)NC(=O)c2ccc(Cl)cc2Cl)c1)NO
IC50 (Histone deacetylase): 258.9 nM
IC50 [1]: 2500 nM

O=C(/C=C/c1cccc(OC[C@H](Cc2c[nH]c3ccccc23)NC(=O)CCCc2ccccc2)c1)NO
IC50 (Histone deacetylase): 498.6 nM
IC50 [1]: 3620 nM

O=C(/C=C/c1cccc(OC[C@H](Cc2c[nH]c3ccccc23)NC(=O)c2ccc(Br)cc2)c1)NO
IC50 (Histone deacetylase): 692.4 nM
IC50 [1]: 1390 nM

O=C(/C=C/c1cccc(OC[C@H](Cc2c[nH]c3ccccc23)NC(=O)c2ccccc2)c1)NO
IC50 (Histone deacetylase): 421.4 nM
IC50 [1]: 1230 nM

O=C(CCCCCCC(=O)Nc1ccccc1)NO [VORINOSTAT]
T/C [3]: 71.7%
Activity (U-937 [4]): 72.62%
Activity (U-937 [5]): 6.65%
Activity (U-937 [6]): 14.57%
IC50 [7]: 3570 nM
Activity (U-937 [8]): 21.22%
Activity (U-937 [9]): 6.16%

O=C(/C=C/c1cccc(OC[C@H](Cc2c[nH]c3ccccc23)NC(=O)c2cc(Cl)cc(Cl)c2)c1)NO
IC50 (Histone deacetylase): 779 nM
IC50 [1]: 3030 nM

O=C(/C=C/c1cccc(OC[C@H](Cc2c[nH]c3ccccc23)NC(=O)c2ccccc2Cl)c1)NO
IC50 (Histone deacetylase): 81.9 nM
IC50 [1]: 740 nM

COc1cccc(C(=O)N[C@H](COc2cccc(/C=C/C(=O)NO)c2)Cc2c[nH]c3ccccc23)c1
IC50 (Histone deacetylase): 67.4 nM
IC50 [1]: 3090 nM

CC(C)(C)OC(=O)N[C@H](COc1cccc(/C=C/C(=O)NO)c1)Cc1c[nH]c2ccccc12
IC50 (Histone deacetylase): 917.4 nM
IC50 [1]: 4180 nM

O=C(/C=C/c1cccc(OC[C@H](Cc2c[nH]c3ccccc23)NC(=O)CCc2ccccc2)c1)NO
IC50 (Histone deacetylase): 464.5 nM
IC50 [1]: 6170 nM

O=C(/C=C/c1cccc(OC[C@H](Cc2c[nH]c3ccccc23)NC(=O)Cc2ccccc2)c1)NO
IC50 (Histone deacetylase): 447.7 nM
IC50 [1]: 6570 nM

CC(C)(C)OC(=O)NCC(=O)N[C@H](COc1cccc(/C=C/C(=O)NO)c1)Cc1c[nH]c2ccccc12
IC50 (Histone deacetylase): 886.4 nM
IC50 [1]: 8950 nM

COc1ccc(C(=O)N[C@H](COc2cccc(/C=C/C(=O)NO)c2)Cc2c[nH]c3ccccc23)cc1
T/C [3]: 56.4%
IC50 (MCF7): 2490 nM
Activity (Mus musculus [10]): Non-toxic
IC50 (Histone deacetylase): 191.2 nM
viability at 1.5 µM (U-937 [4]; Homo sapiens, U-937, 24 h, read-out: Activity): 57.5%
IC50 (MDA-MB-231): 970 nM
Activity (U-937 [5]): 11.54%
IC50 [11]: 1080 nM
IC50 (A549): 4500 nM
IC50 [12]: 360 nM
Activity (U-937 [6]): 23.99%
inhibition in vivo at 120 mg/kg/day [13]: 42.7%
IC50 [7]: 3880 nM
IC50 (Histone deacetylase 3): 224 nM
IC50 [14]: 2310 nM
IC50 (Histone deacetylase 1): 219 nM
IC50 [15]: 3700 nM
Activity (Mus musculus [16]): Non-toxic
IC50 (HEL): 380 nM
IC50 [1]: 410 nM
IC50 [2]: 93.8 nM
Activity (Mus musculus [17]): Non-toxic
Activity (U-937 [8]): 35.53%
Activity (U-937 [9]): 6.92%
IC50 (Histone deacetylase 2): 865 nM
IC50 (K562): 3460 nM
